Test results published in ChEMBL document CHEMBL1921748, “Renin inhibitors for the treatment of hypertension: design and optimization of a novel series of spirocyclic piperidines” (Bioorg Med Chem Lett, 2011).
Each block holds one molecule with its values, some of them ahead of it.

Legend:
in vitro = settings: human, liver microsomes
[1] = Oral bioavailability in Sprague-Dawley rat at 3 mg/kg; assay type: ADME, organism-based; settings: in vivo
[2] = AUC in Sprague-Dawley rat at 3 mg/kg, po; assay type: ADME, organism-based; parameters: dose 3 mg/kg, route oral; settings: plasma
[3] = Clearance in Sprague-Dawley rat at 3 mg/kg, po and 0.5 mg/kg, iv; assay type: ADME, organism-based; settings: in vivo
[4] = Half life in Sprague-Dawley rat at 3 mg/kg, po and 0.5 mg/kg, iv; assay type: ADME, organism-based; settings: in vivo
[5] = Volume of distribution at steady state in Sprague-Dawley rat at 3 mg/kg, po and 0.5 mg/kg, iv; assay type: ADME, organism-based; settings: in vivo, read-out: Vdss
[6] = Oral bioavailability in Beagle dog at 3 mg/kg; assay type: ADME, organism-based, Canis lupus familiaris; settings: in vivo
[7] = AUC in Beagle dog at 3 mg/kg, po; assay type: ADME, organism-based, Canis lupus familiaris; parameters: dose 3 mg/kg, route oral; settings: plasma
[8] = Clearance in Beagle dog at 3 mg/kg, po and 1 mg/kg, iv; assay type: ADME, organism-based, Canis lupus familiaris; settings: in vivo
[9] = Half life in Beagle dog at 3 mg/kg, po and 1 mg/kg, iv; assay type: ADME, organism-based, Canis lupus familiaris; settings: in vivo
[10] = Volume of distribution at steady state in Beagle dog at 3 mg/kg, po and 1 mg/kg, iv; assay type: ADME, organism-based, Canis lupus familiaris; settings: in vivo, read-out: Vdss
[11] = Oral bioavailability in rhesus monkey at 3 mg/kg; assay type: ADME, organism-based, Macaca mulatta; settings: in vivo
[12] = AUC in rhesus monkey at 3 mg/kg, po; assay type: ADME, organism-based, Macaca mulatta; parameters: dose 3 mg/kg, route oral; settings: plasma
[13] = Clearance in rhesus monkey at 3 mg/kg, po and 1 mg/kg, iv; assay type: ADME, organism-based, Macaca mulatta; settings: in vivo
[14] = Half life in rhesus monkey at 3 mg/kg, po and 1 mg/kg, iv; assay type: ADME, organism-based, Macaca mulatta; settings: in vivo
[15] = Volume of distribution at steady state in rhesus monkey at 3 mg/kg, po and 1 mg/kg, iv; assay type: ADME, organism-based, Macaca mulatta; settings: in vivo, read-out: Vdss
[16] = Metabolic stability in rat liver microsomes assessed as compound remaining at 1 uM after 30 mins in presence of NADPH; assay type: ADME, Microsome; settings: read-out: Stability
[17] = Metabolic stability in human liver microsomes assessed as compound remaining at 1 uM after 30 mins in presence of NADPH; assay type: ADME, Microsome; settings: read-out: Stability
[18] = Metabolic stability in Sprague-Dawley rat hepatocytes assessed as compound remaining at 10 uM after 2 hrs; assay type: ADME, cell-based, Hepatocyte; settings: read-out: Stability
[19] = Metabolic stability in dog liver microsomes assessed as compound remaining at 1 uM after 30 mins in presence of NADPH; assay type: ADME, Canis lupus familiaris, Microsome; settings: read-out: Stability
[20] = Metabolic stability in rhesus monkey liver microsomes assessed as compound remaining at 1 uM after 30 mins in presence of NADPH; assay type: ADME, Macaca mulatta, Microsome; settings: read-out: Stability
[21] = Oral bioavailability in Sprague-Dawley rat at 0.3 mg/kg; assay type: ADME, organism-based; settings: in vivo
[22] = Oral bioavailability in Sprague-Dawley rat at 30 mg/kg; assay type: ADME, organism-based; settings: in vivo
[23] = Clearance in Sprague-Dawley rat at 0.3 mg/kg, po; assay type: ADME, organism-based; parameters: dose 0.3 mg/kg, route oral; settings: in vivo
Rattus norvegicus = test: Volume of distribution at steady state in Sprague-Dawley rat at 0.3 mg/kg, po; assay type: ADME, organism-based; parameters: dose 0.3 mg/kg, route oral; settings: in vivo
[24] = Half life in Sprague-Dawley rat at 0.3 mg/kg, po; assay type: ADME, organism-based; parameters: dose 0.3 mg/kg, route oral; settings: in vivo
[25] = Apparent permeability of the compound; assay type: ADME; settings: not told

Structure (SMILES): COCCCc1cc(CCCN2CCOCC2)c(Cl)c(CN(C(=O)[C@H]2CNCC[C@@]23OCc2cc(F)c(F)cc23)C2CC2)c1.Cl.Cl.Cl
- bioavailability [1]: 23%
- AUC [2]: 0.37 µM·h
- clearance [3]: 47 mL/min/kg
- half-life [4]: 5.3 h
- Vd [5]: 24 L/kg
- bioavailability [6]: 1%
- AUC [7]: 0.01 µM·h
- clearance [8]: 73 mL/min/kg
- half-life [9]: 10 h
- Vd [10]: 73 L/kg
- bioavailability [11]: 1%
- AUC [12]: 0.01 µM·h
- clearance [13]: 66 mL/min/kg
- half-life [14]: 5 h
- Vd [15]: 45 L/kg

Structure (SMILES): COCCCc1cc(CN(C(=O)[C@H]2CNCC[C@]2(O)c2ccc(F)c(F)c2)C2CC2)cc(OCCOC)c1
- bioavailability [21]: 17%
- bioavailability [1]: 29%
- bioavailability [22]: 18%
- CL/F [23]: 36 mL/min/kg
- Vdss (Rattus norvegicus): 5 L/kg
- half-life [24]: 1.5 h
- Papp [25]: 21.5 ×10⁻⁶ cm/s

Continued, values first:

- remaining at 1 h, 10 µM (in vitro): 50%
Structure (SMILES): O=C([C@H]1CNCC[C@@]12OCc1cc(F)c(F)cc12)N(Cc1cccc(C(F)(F)F)c1Cl)C1CC1

- remaining at 0.5 h, 1 µM [16]: 0%
- remaining at 0.5 h, 1 µM [17]: 1%
- remaining at 2 h, 10 µM [18]: 8%
Structure (SMILES): Cc1cccc(CN(C(=O)[C@H]2CNCC[C@@]23OCc2cc(F)c(F)cc23)C2CC2)c1C

- remaining at 0.5 h, 1 µM [16]: 53%
- remaining at 0.5 h, 1 µM [17]: 51%
- remaining at 0.5 h, 1 µM [19]: 43%
- remaining at 0.5 h, 1 µM [20]: 10%
Structure (SMILES): COCCCc1cc(CCCN2CCOCC2)c(Cl)c(CN(C(=O)[C@H]2CNCC[C@@]23OCc2cc(F)c(F)cc23)C2CC2)c1
